The subject of assay [1] is Jurkat. Put plainly: Antitumour activity against human Jurkat cells xenografted in SCID/NOD mouse assessed as reduction of inactivity and messy hair at 40 mg/kg, po administered once a day for 3 weeks. As to conditions: dose 40.0 mg/kg/day. It counts as functional, organism-based.
For assay [2], the system named is Jurkat. Put plainly: Antitumour activity against human Jurkat cells xenografted in SCID/NOD mouse assessed as increase in body weight at 40 mg/kg, po administered once a day for 3 weeks. The class given is functional, organism-based. As to conditions: dose 40.0 mg/kg/day. For orientation: A xenograft is tissue or cells of one species grown in another, often human tumour cells in immunodeficient mice.

In assay [3] the test system is Jurkat. Put plainly: Antitumour activity against human Jurkat cells xenografted in SCID/NOD mouse assessed as proportion of CD3-positive cells in peripheral blood at 40 mg/kg, po administered once a day for 3 weeks by immunophenotyping based flow cytometry method (reference value: 18.81%). It counts as functional. As to conditions: dose 40 mg/kg/day.
Assay [4] deals with Jurkat. Put plainly: Antitumour activity against human Jurkat cells xenografted in SCID/NOD mouse assessed as proportion of CD45-positive cells in peripheral blood at 40 mg/kg, po administered once a day for 3 weeks by immunophenotyping based flow cytometry method (reference value: 4.88%). The class given is functional. Particulars: dose 40 mg/kg/day.
In assay [5] the test system is Jurkat. Put plainly: Antitumour activity against human Jurkat cells xenografted in SCID/NOD mouse assessed as decrease in expression of CD3 in bone marrow at 40 mg/kg, po administered once a day for 3 weeks by immunohistochemical staining method. It counts as functional, organism-based. Particulars: dose 40.0 mg/kg/day.
The subject of assay [6] is Mus musculus. Put plainly: Antitumour activity against human Jurkat cells xenografted in SCID/NOD mouse assessed as decrease in expression of CD45 in bone marrow at 40 mg/kg, po administered once a day for 3 weeks by immunohistochemical staining method. The class given is functional, organism-based. Particulars: dose 40.0 mg/kg/day.
The test system of assay [7] is Mus musculus. Put plainly: Inhibition of spleen infiltration in SCID/NOD mouse xenografted with human Jurkat cells assessed as reduction in spleen enlargement at 40 mg/kg, po administered once a day for 3 weeks. As to conditions: dose 40.0 mg/kg/day. It counts as functional, organism-based.
In assay [8] the test system is Mus musculus. Put plainly: Inhibition of spleen infiltration in SCID/NOD mouse xenografted with human Jurkat cells assessed as reduction in spleen index at 40 mg/kg, po administered once a day for 3 weeks. Particulars: dose 40.0 mg/kg/day. It counts as functional, organism-based.
Assay [9] relates to Mus musculus. Put plainly: Inhibition of spleen infiltration in SCID/NOD mouse xenografted with human Jurkat cells assessed as decrease in CD3 expression in spleen at 40 mg/kg, po once a day for 3 weeks by immunohistochemical staining method. The class given is functional, organism-based. As to conditions: dose 40.0 mg/kg/day.
Assay [10] has as its system Mus musculus. Put plainly: Inhibition of spleen infiltration in SCID/NOD mouse xenografted with human Jurkat cells assessed as decrease in CD45 expression in spleen at 40 mg/kg, po once a day for 3 weeks by immunohistochemical staining method. The class given is functional, organism-based. Particulars: dose 40.0 mg/kg/day.
The test system of assay [11] is Mus musculus. Put plainly: In vivo inhibition of PI3K phosphorylation at Ser249 residue in spleen of SCID/NOD mouse xenografted with human Jurkat cells at 40 mg/kg, po administered once a day for 3 weeks by Western blot method. It counts as functional, organism-based. As to conditions: dose 40.0 mg/kg/day.
Assay [12] concerns Mus musculus. Put plainly: In vivo inhibition of Akt phosphorylation at Ser473 residue in spleen of SCID/NOD mouse xenografted with human Jurkat cells at 40 mg/kg, po administered once a day for 3 weeks by Western blot method. It counts as functional, organism-based. As to conditions: dose 40.0 mg/kg/day.
Assay [13] relates to Mus musculus. Put plainly: In vivo inhibition of mTOR phosphorylation at Ser2448 residue in spleen of SCID/NOD mouse xenografted with human Jurkat cells at 40 mg/kg, po administered once a day for 3 weeks by Western blot method. The class given is functional, organism-based. Particulars: dose 40.0 mg/kg/day.
For assay [14], the system named is Mus musculus. Put plainly: Induction of immune response in SCID/NOD mouse xenografted with human Jurkat cells assessed as increase in IL-2 level in spleen at 40 mg/kg, po administered once a day for 3 weeks by ELISA reader method. It counts as functional, organism-based. As to conditions: dose 40.0 mg/kg/day.
For assay [15], the system named is Mus musculus. Put plainly: Induction of immune response in SCID/NOD mouse xenografted with human Jurkat cells assessed as increase in IFN-gamma level in spleen at 40 mg/kg, po administered once a day for 3 weeks by ELISA reader method. It counts as functional, organism-based. Particulars: dose 40.0 mg/kg/day.
In assay [16] the test system is Mus musculus. Put plainly: Induction of immune response in SCID/NOD mouse xenografted with human Jurkat cells assessed as increase in NK cells in spleen at 40 mg/kg, po administered once a day for 3 weeks by ELISA reader method. The class given is functional, organism-based. Particulars: dose 40.0 mg/kg/day.
Assay [17] deals with Mus musculus. Put plainly: Induction of immune response in SCID/NOD mouse xenografted with human Jurkat cells assessed as decrease in IL-4 level in spleen at 40 mg/kg, po administered once a day for 3 weeks by ELISA reader method. It counts as functional, organism-based. Particulars: dose 40.0 mg/kg/day.
The subject of assay [18] is Mus musculus. Put plainly: Induction of immune response in SCID/NOD mouse xenografted with human Jurkat cells assessed as decrease in IL-6 level in spleen at 40 mg/kg, po administered once a day for 3 weeks by ELISA reader method. The class given is functional, organism-based. Particulars: dose 40.0 mg/kg/day.
Assay [19] concerns Mus musculus. Put plainly: Induction of immune response in SCID/NOD mouse xenografted with human Jurkat cells assessed as decrease in IL-10 level in spleen at 40 mg/kg, po administered once a day for 3 weeks by ELISA reader method. The class given is functional, organism-based. As to conditions: dose 40.0 mg/kg/day.
Assay [20] deals with Mus musculus. Put plainly: Induction of intestinal homeostasis in SCID/NOD mouse xenografted with human Jurkat cells assessed as decrease of enlargement of epithelial cells and infiltration of inflammatory cells in the colon at 40 mg/kg, po administered once a day for 3 weeks by Hand E staining based microscopic analysis. The class given is functional, organism-based. As to conditions: dose 40.0 mg/kg/day.

In assay [21] the test system is Mus musculus. Put plainly: Induction of intestinal homeostasis in SCID/NOD mouse xenografted with human Jurkat cells assessed as increase in goblet cells in the glands at 40 mg/kg, po administered once a day for 3 weeks by Hand E staining based microscopic analysis. The class given is functional, organism-based. As to conditions: dose 40.0 mg/kg/day.
Assay [22] relates to Mus musculus. Put plainly: Induction of intestinal homeostasis in SCID/NOD mouse xenografted with human Jurkat cells assessed as upregulation of ZO-1 mRNA levels in colon at 40 mg/kg, po administered once a day for 3 weeks by real time RT-PCR analysis. The class given is functional, organism-based. Particulars: dose 40.0 mg/kg/day.
Assay [23] has as its system Mus musculus. Put plainly: Induction of intestinal homeostasis in SCID/NOD mouse xenografted with human Jurkat cells assessed as upregulation of occludin mRNA levels in colon at 40 mg/kg, po administered once a day for 3 weeks by real time RT-PCR analysis. It counts as functional, organism-based. As to conditions: dose 40.0 mg/kg/day.
In assay [24] the test system is Mus musculus. Put plainly: Induction of intestinal homeostasis in SCID/NOD mouse xenografted with human Jurkat cells assessed as upregulation of claudin-1 mRNA levels in colon at 40 mg/kg, po administered once a day for 3 weeks by real time RT-PCR analysis. As to conditions: dose 40.0 mg/kg/day. It counts as functional, organism-based.

Calls of active or inactive are those of the source. The calls are words filed in the database; no cut-off is given here.

In the case of `CC(C)=CCC[C@](C)(O)[C@H]1CC[C@]2(C)[C@@H]1[C@H](O)C[C@@H]1[C@@]3(C)CC[C@H](O[C@@H]4O[C@H](CO)[C@@H](O)[C@H](O)[C@H]4O)C(C)(C)[C@@H]3CC[C@]12C` [GINSENOSIDE RH2], the result in the assay on Jurkat [1], in the assay on Jurkat [2], in the assay with Jurkat [5], in the assay with Mus musculus [6], with Mus musculus [14] and in the assay on Mus musculus [15] was Active. Also, the result in the assay on Mus musculus [16], with Mus musculus [17], in the assay with Mus musculus [18], in the assay on Mus musculus [19], with Mus musculus [20] and in the assay on Mus musculus [21] was Active. Moreover, the outcome in the assay with Mus musculus [22], in the assay on Mus musculus [23] and with Mus musculus [24] was Active. Moreover, the figures for the Activity in the assay with Jurkat [3] and with Jurkat [4] were 5.78% and 1.28%, respectively. In addition, the inhibition result with Mus musculus [7], in the assay on Mus musculus [8], with Mus musculus [9], in the assay with Mus musculus [10], in the assay with Mus musculus [11] and in the assay with Mus musculus [12] was “Active” each time. Further, the inhibition entry with Mus musculus [13] was “Active”.

The record behind these values is ChEMBL document CHEMBL4706513, “New insight into 20(S)-ginsenoside Rh2 against T-cell acute lymphoblastic leukemia associated with the gut microbiota and the immune system” (2020).
